According to US8329454B2, “Device for detecting a cholinesterase-inhibiting substance comprising a hydrophilic photo-crosslinkable resin” (priority 2008, dated 2012):

system: cholinesterase; assay: Visual detection with the cholinesterase detection device without oxidation treatment (Comparative Example 1, Example 2); assay type: biochemical; details: Comparative Example 1: as Example 1 but no oxidation treatment (no NBS)
Procedure: This is a comparative experiment for confirming the effect of oxidation treatment (NBS solution suction treatment) in Example 1. In the same manner as in Example 1, the column was made to adsorb diazinone in the sample, and then not processed for oxidation treatment (NBS solution suction treatment), diazinone was eluted from the column. The eluate was added to the detection device, and an indoxyl acetate solution was added to the device.
The detection method was to follow the process shown in FIG. 3; however, since a carbamate agrichemical was the object to be detected, the NBS solution suction and discharge operation attained in Example 1 was omitted here.
As a sample, prepared was 10 mL of an aqueous solution of a carbaryl (NAC) standard liquid of a carbamate agrichemical having a diluted concentration of 10 ppb; and this was sucked in the syringe with a column chip connected to the tip thereof, as shown in FIG. 2.
The sucked solution was discharged in a beaker and again sucked, and this cycle was repeated three times whereby the sample NAC was adsorbed by the column. Subsequently, NAC was eluted from the column, and put into the device to undergo an enzyme inhibitory reaction for 5 minutes therein.
After 5 minutes, a coloring substrate of an indoxyl acetate solution was added to the device, and underwent coloration reaction for 5 minutes.
Other agrichemical substances were tested in the same manner as in Example 1 and Example 2, and the following results were obtained.

In the case of `CCOP(=S)(OCC)Oc1cc(C)nc(C(C)C)n1` [diazinone], the detection level was 5 ppm.

same assay, conditions: Example 2: 10 mL aqueous sample, adsorbed on column, no NBS step, 5 min inhibition, indoxyl acetate 5 min, no coloration

In the case of `CNC(=O)Oc1cccc2ccccc12` [carbaryl], the “detected at a concentration level” value was 10 ppb.

same assay, conditions: Table 1, agrichemicals marked *, taken as tested in the same manner as Example 2 (no NBS oxidation)

Compared with `CS/C(C)=N\OC(=O)N(C)SN(C)C(=O)O/N=C(\C)SC` [thiodicarb], `Cc1nc(N(C)C)nc(OC(=O)N(C)C)c1C` [pirimicarb] is lower in “Detection Level (ppb)” value: 20 ppb for the first, 8 ppb for the second.

system: cholinesterase; assay: not given; details: prior-art kit AT-10/AT-25 (Agriscreen Ticket 10/25) by NEOGEN; cited from earlier work

In the case of `COP(=S)(OC)Oc1nc(Cl)c(Cl)cc1Cl` [chlorpyrifos-methyl], the detection limit is given as about 1.0 ppm.
In the case of `CCOP(=S)(OCC)Oc1nc(Cl)c(Cl)cc1Cl` [chlorpyrifos], the detection limit is given as about 0.7 ppm.
For `CNC(=O)Oc1cccc2ccccc12` [carbaryl], the detection limit is given as “around 7.0 ppm”.
In the case of `CCOP(=S)(OCC)Oc1cc(C)nc(C(C)C)n1` [diazinone], the detection limit is given as about 2.0 ppm.

system: cholinesterase; assay: Visual detection with the cholinesterase detection device after on-column NBS oxidation (Example 1); details: Example 1: 10 mL aqueous sample, adsorbed on column, 1% NBS oxidation to oxon form, 5 min inhibition, indoxyl acetate 5 min, no coloration

With `CCOP(=S)(OCC)Oc1cc(C)nc(C(C)C)n1` [diazinone] the “detected at a concentration level” value was 0.1 ppb.

same assay, conditions: Table 1, tested in the same manner as Example 1 (NBS oxidation)

Compared with `COP(=O)(OC)O/C(=C\Cl)c1ccc(Cl)cc1Cl` [dimethylvinphos(Z)], `COP(=S)(OC)Oc1nc(Cl)c(Cl)cc1Cl` [chlorpyrifos-methyl] is lower in “Detection Level (ppb)” value: 100 ppb for the first, 1 ppb for the second.

Going from `CCOP(=S)(OCC)Oc1ccc([N+](=O)[O-])cc1` [parathion] to `CCOP(=S)(OCC)Oc1nc(Cl)c(Cl)cc1Cl` [chlorpyrifos], the “Detection Level (ppb)” value falls from 0.8 ppb to 0.2 ppb.

Compared with `CCOP(=S)(OCC)Oc1ccc2c(C)c(Cl)c(=O)oc2c1` [coumafos], `CCOP(=S)(OCC)SCSP(=S)(OCC)OCC` [ethion] is higher in “Detection Level (ppb)” value: 2 ppb for the first, 10 ppb for the second.

Going from `CCOP(=O)(OCC)O/C(=C\Cl)c1ccc(Cl)cc1Cl` [chlorfenvinphos] to `CCOP(=S)(OCC)SCn1nnc2ccccc2c1=O` [azinphos-ethyl], the “Detection Level (ppb)” value falls from 40 ppb to 1 ppb.

First: COP(=O)(OC)O/C(=C/Cl)c1ccc(Cl)cc1Cl [dimethylvinphos(E)]
Second: CCOP(=S)(OCC)SCSCC [phorate]
The “Detection Level (ppb)” value of the first is higher: 100 ppb for the first, 80 ppb for the second.

Compared with `COP(=S)(OC)Oc1ccc([N+](=O)[O-])c(C)c1` [fenitrothion], `CCN(CC)c1nc(C)cc(OP(=S)(OC)OC)n1` [pyrimiphos-methyl] is lower in “Detection Level (ppb)” value: 40 ppb for the first, 20 ppb for the second.

Compared with `CCOP(=S)(OCC)Oc1ccc(Cl)cc1Cl` [dichlofenthion], `CCOP(=S)(OCC)Oc1ccc(=O)n(-c2ccccc2)n1` [pyridaphenthion] is lower in “Detection Level (ppb)” value: 100 ppb for the first, 1 ppb for the second.

First: CCCSP(=S)(OCC)Oc1ccc(SC)cc1 (centres unmarked) [sulprofos]
Second: CCOP(=S)(OCC)Oc1cc(Cl)c(Br)cc1Cl [bromofos-ethyl]
The “Detection Level (ppb)” value of the first is higher: 20 ppb for the first, 10 ppb for the second.

First: CCOP(=S)(OCC)Oc1ccc([S+](C)[O-])cc1 (centres unmarked) [fensulfothion]
Second: etorifos
The “Detection Level (ppb)” value of the first is higher: 100 ppb for the first, 10 ppb for the second.

Compared with `CCOP(=S)(OCC)Oc1cc(-c2ccccc2)on1` [isoxathion], `CCCOP(=O)(OCCC)Oc1ccc(SC)cc1` [propafos] is higher in “Detection Level (ppb)” value: 0.2 ppb for the first, 1 ppb for the second.

Compared with `CCOP(=S)(OCC)SCSC(C)(C)C` [terbufos], `CCOP(=S)(OCC)Oc1cnc2ccccc2n1` [quinalphos] is lower in “Detection Level (ppb)” value: 10 ppb for the first, 0.1 ppb for the second.

Compared with `CCCSP(=O)(OCC)SCCC` [etoprophos], `COP(=S)(OC)SCn1nnc2ccccc2c1=O` [azinphos-methyl] is lower in “Detection Level (ppb)” value: 100 ppb for the first, 8 ppb for the second.

Going from `CNC(=O)/C=C(\C)OP(=O)(OC)OC` [monocrotophos] to `CCOP(=S)(OCC)SCn1c(=O)oc2cc(Cl)ccc21` [phosalone], the “Detection Level (ppb)” value falls from 100 ppb to 6 ppb.

Going from `CCOP(=S)(Oc1ccc([N+](=O)[O-])cc1)c1ccccc1` (centres unmarked) [EPN] to `CCOP(=S)(NC(C)CC)Oc1cc(C)ccc1[N+](=O)[O-]` (centres unmarked) [butamifos], the “Detection Level (ppb)” value rises from 40 ppb to 100 ppb.

For `COP1(=S)OCc2ccccc2O1` (centres unmarked) [salithion], the “Detection Level (ppb)” value was 100 ppb.
